According to ChEMBL document CHEMBL1201862, “PubChem BioAssay data set” (2004):
The source made the active and inactive calls.

Columns and labels:
CHO-K1 = test: Counterscreen for antagonists of the orexin 1 receptor (OX1R; HCRTR1): Homogeneous time resolved fluorescence (HTRF)-based cell-based dose response assay to identify antagonists of the parental CHO-K1 cell line. [Related pubchem assays (depositor defined):AID434989, AID435008, AID463079, AID485270, AID492963, AID492964, AID492965, AID493232, AID504699, AID504701]; format: functional; details: Cricetulus griseus;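 note: potency for inhibition of ATP-stimulated IP1 production as antagonists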
[1] = target: T1, Orexin/Hypocretin receptor type 1 (Homo sapiens, UniProt O43613); test: Homogeneous Time Resolved Fluorescence (HTRF)-based cell-based high throughput dose response assay for antagonists of the orexin 1 receptor (OX1R; HCRTR1). [Related pubchem assays (depositor defined):AID434989, AID435008, AID463079, AID485270, AID492963, AID492964, AID492965, AID493232, AID504717, AID504718]; format: functional
T1 sequence (O43613 whole entry): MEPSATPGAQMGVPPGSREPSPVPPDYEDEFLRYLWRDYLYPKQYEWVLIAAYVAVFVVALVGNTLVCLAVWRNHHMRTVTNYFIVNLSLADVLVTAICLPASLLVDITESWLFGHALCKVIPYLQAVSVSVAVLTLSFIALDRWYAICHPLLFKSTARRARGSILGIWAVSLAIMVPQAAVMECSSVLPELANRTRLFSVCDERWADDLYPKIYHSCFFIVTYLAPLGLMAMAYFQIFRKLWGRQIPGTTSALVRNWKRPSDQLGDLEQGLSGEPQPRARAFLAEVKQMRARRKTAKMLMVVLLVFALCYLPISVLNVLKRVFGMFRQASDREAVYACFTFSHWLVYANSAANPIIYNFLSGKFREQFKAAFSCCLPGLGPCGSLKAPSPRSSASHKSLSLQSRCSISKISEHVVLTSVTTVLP

[2] = target: T1, Orexin/Hypocretin receptor type 1; test: Fluorescence-based cell-based high throughput dose response assay for antagonists of the orexin 1 receptor (OX1R; HCRTR1). [Related pubchem assays (depositor defined):AID434989, AID435008, AID463079, AID485270, AID492963, AID492964, AID492965, AID493232, AID504717, AID504718]; format: functional
Orexin receptor type 2 [3] = target: T2, Orexin receptor type 2 (Homo sapiens, UniProt O43614); test: Counterscreen assay for antagonists of the orexin 1 receptor (OX1R; HCRTR1): Fluorescence-based cell-based dose response assay for antagonists of the orexin 2 receptor (OX2R; HCRTR2), run by assay provider.; format: functional
T2 sequence (O43614 whole entry): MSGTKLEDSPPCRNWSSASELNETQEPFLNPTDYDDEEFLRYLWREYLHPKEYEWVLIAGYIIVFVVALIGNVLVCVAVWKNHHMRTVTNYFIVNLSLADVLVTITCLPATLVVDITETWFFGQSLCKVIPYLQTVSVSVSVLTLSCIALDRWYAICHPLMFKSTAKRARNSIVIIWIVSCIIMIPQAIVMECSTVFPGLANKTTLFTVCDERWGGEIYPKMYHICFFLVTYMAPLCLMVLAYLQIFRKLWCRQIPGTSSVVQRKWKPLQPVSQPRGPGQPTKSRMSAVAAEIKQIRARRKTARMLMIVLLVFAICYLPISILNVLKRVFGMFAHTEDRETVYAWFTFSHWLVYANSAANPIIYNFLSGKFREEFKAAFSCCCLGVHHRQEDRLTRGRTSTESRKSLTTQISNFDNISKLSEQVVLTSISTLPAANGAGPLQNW

Orexin receptor type 2 [4] = target: T2, Orexin receptor type 2; test: Counterscreen assay for antagonists of the orexin 1 receptor (OX1R; HCRTR1): Homogeneous Time Resolved Fluorescence (HTRF)-based cell-based dose response assay for antagonists of the orexin 2 receptor (OX2R; HCRTR2), run by assay provider.; format: functional
[5] = Counterscreen for antagonists of the orexin 1 receptor (OX1R; HCRTR1): Fluorescence-based cell-based high throughput dose response assay to identify antagonists of the parental CHO cell line. [Related pubchem assays (depositor defined):AID434989, AID435008, AID463079, AID485270, AID492963, AID492964, AID492965, AID493232, AID504699, AID504701]; format: functional
[6] = target: T3, DNA repair and recombination protein RAD54-like (Homo sapiens, UniProt Q92698); test: inhibitors of human RAD54 branch migration, confirmation, biochemical, fluorescence, cherry-picked samples, dose series (AID 651657); format: functional
T3 sequence (Q92698 whole entry): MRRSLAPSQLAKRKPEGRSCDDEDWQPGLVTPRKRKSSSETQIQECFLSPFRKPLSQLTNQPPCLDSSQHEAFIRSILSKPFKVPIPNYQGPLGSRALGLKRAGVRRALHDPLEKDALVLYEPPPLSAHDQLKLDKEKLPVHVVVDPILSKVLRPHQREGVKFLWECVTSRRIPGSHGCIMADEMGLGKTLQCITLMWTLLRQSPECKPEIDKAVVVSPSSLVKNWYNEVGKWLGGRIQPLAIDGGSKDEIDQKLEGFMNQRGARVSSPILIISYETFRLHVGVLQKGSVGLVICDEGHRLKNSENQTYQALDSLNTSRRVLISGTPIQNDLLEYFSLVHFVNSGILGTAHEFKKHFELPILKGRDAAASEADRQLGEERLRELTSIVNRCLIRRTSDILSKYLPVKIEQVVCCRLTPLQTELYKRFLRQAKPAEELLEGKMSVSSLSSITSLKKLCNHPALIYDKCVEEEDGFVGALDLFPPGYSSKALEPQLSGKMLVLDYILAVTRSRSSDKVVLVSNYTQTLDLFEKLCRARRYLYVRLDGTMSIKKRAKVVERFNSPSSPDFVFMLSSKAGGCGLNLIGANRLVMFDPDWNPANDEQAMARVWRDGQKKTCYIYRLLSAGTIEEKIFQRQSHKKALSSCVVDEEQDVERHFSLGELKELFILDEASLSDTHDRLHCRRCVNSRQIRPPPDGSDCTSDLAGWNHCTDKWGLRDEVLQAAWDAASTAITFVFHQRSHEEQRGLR

[7] = target: T4, Hepatocyte nuclear factor 4-alpha (Homo sapiens, UniProt P41235); format: functional, cell-based;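 note: biochemical luminescence-based dose-response counterscreen measuring inhibition of HNF4 dimerization, run alongside a screen for blockers of ABHD5–perilipin-5 interaction; split luciferase complementation of HNF4 fusion proteins in cell lysate measuring dimerization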
T4 sequence (P41235 whole entry): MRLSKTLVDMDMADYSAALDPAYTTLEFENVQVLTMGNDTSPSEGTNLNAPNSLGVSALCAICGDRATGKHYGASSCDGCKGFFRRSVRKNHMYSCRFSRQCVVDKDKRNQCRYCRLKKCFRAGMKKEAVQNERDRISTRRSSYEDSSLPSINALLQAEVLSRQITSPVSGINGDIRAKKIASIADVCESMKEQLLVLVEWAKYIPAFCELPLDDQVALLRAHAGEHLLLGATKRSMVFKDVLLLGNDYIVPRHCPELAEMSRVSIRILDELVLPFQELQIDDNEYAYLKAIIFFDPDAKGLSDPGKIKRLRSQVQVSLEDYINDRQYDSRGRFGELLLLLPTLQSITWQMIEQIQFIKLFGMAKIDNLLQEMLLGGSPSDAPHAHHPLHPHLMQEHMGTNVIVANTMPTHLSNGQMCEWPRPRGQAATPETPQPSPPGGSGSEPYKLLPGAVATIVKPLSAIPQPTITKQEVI

[8] = target: T5, High affinity choline transporter 1 (Homo sapiens, UniProt Q9GZV3); test: CHT inhibitors, dose response, cell-based, 5-point CRC, membrane potential dye (AID 504840); format: functional
T5 sequence (Q9GZV3 whole entry): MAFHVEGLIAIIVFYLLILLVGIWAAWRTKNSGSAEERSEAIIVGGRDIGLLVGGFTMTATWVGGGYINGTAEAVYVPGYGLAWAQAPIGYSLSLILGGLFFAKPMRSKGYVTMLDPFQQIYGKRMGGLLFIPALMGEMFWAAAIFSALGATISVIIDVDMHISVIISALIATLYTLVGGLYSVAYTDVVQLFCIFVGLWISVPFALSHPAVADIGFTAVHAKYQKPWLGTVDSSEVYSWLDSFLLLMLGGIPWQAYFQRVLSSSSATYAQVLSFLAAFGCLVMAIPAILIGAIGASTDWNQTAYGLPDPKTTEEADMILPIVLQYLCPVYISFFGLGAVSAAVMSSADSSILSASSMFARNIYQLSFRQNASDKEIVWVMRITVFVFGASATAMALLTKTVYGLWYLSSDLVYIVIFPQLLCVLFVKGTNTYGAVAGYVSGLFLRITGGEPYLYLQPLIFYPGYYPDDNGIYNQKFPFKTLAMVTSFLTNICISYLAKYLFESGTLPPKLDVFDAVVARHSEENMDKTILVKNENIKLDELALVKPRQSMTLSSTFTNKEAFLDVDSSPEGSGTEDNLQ

[9] = target: Heat shock protein HSP 90-alpha (Homo sapiens, UniProt P07900); format: functional, organism-based
[10] = target: T6, Heat shock factor protein 1 (Mus musculus, UniProt P38532); test: HSF1 potentiators in luciferase reporter cells, confirmation, cell-based, NIH3T3, luminescence, dose retest (AID 435004); format: functional;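 note: stress induced by proteasome inhibitor MG132 added 30 min after compound; luciferase reporter driven by HSF1 response element in NIH3T3 cells; actives raise luminescence as potentiators of the MG132 stress response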
T6 sequence (P38532 whole entry): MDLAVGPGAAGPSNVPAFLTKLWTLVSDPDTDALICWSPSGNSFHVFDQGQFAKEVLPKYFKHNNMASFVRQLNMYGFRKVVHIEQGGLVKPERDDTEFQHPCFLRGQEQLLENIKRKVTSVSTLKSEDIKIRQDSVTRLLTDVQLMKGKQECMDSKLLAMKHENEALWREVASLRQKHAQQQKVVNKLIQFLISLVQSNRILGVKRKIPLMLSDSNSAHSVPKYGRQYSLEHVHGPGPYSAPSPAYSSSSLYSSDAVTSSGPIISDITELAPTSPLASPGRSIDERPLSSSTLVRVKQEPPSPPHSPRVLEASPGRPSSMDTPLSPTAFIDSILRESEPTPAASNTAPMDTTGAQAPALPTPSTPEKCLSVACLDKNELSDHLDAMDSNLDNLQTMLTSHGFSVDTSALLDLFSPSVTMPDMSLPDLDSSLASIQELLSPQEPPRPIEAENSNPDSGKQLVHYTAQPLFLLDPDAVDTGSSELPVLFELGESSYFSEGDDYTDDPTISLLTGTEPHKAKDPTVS

[11] = cytotoxicity toward NIH3T3 fibroblasts, dose response, counter-screen, cell-based, ATP luminescence, mouse fibroblasts (AID 2010); format: functional;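 note: cells exposed to compound for about 90 hours before reading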
[12] = target: T7, Polyadenylate-binding protein 1 (Homo sapiens, UniProt P11940); test: PABP1 MLLE–PAM2 interaction inhibitors, dose response, miRNA deadenylation inhibitor project, biochemical, fluorescence polarization, Cy5-PAM2 peptide, secondary (AID 602260); format: functional; details: read-out: IC50_Mean
[13] = target: T7, Polyadenylate-binding protein 1; test: PABP1 MLLE–PAM2 binding inhibitor potency, dose response, biochemical, fluorescence polarization, FITC-PAM2 peptide (AID 602259); format: functional; details: read-out: IC50_Mean
Vero [14] = test: Vero cell cytotoxicity, cytotoxicity control for flavivirus capping enzyme inhibitors (AID 588742); format: functional; details: Chlorocebus sabaeus
Genome polyprotein = Genome polyprotein (dengue virus type 2, UniProt P29990); test: Dengue-2 NS5 methyltransferase inhibitors, primary screen, biochemical, confirmation dose response (AID 588689); format: functional
[15] = Luminescence Cell-Based Dose Retest to Confirm Inhibitors of Cancer Stem Cells. [Related pubchem assays (depositor defined):AID2717, AID2721]; format: functional; details: Homo sapiens
[16] = inhibitors of intracellular T. cruzi replication, confirmation, NIH3T3 host cells, beta-gal luminescence (AID 2044); format: functional, cell-based;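 note: intracellular parasites grown in NIH/3T3 mouse fibroblasts as host cells; luminescent beta-galactosidase reporter signal from transgenic T. cruzi replicating inside host cells; inhibitors lower the luminescence signal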
Vero [17] = test: cells; format: functional; details: Chlorocebus sabaeus

T7 sequence (P11940 whole entry): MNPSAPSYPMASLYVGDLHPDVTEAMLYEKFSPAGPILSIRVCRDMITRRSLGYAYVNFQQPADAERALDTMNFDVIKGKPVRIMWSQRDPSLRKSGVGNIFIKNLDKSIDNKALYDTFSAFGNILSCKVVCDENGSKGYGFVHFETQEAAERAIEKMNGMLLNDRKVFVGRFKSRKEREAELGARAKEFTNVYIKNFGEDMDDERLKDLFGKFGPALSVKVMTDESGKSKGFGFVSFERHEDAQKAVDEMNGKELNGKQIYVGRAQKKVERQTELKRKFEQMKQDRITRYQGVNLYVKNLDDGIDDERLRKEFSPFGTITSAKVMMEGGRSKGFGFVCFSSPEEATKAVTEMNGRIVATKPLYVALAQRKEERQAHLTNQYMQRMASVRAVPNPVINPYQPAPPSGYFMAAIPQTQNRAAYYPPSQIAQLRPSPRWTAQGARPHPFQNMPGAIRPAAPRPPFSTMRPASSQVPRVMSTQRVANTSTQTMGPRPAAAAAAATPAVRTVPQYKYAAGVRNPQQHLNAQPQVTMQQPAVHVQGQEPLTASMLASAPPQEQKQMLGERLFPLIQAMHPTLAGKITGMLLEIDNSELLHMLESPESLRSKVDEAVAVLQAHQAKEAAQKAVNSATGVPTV
Chain of Genome polyprotein (P29990 2492-3391 limits assumed): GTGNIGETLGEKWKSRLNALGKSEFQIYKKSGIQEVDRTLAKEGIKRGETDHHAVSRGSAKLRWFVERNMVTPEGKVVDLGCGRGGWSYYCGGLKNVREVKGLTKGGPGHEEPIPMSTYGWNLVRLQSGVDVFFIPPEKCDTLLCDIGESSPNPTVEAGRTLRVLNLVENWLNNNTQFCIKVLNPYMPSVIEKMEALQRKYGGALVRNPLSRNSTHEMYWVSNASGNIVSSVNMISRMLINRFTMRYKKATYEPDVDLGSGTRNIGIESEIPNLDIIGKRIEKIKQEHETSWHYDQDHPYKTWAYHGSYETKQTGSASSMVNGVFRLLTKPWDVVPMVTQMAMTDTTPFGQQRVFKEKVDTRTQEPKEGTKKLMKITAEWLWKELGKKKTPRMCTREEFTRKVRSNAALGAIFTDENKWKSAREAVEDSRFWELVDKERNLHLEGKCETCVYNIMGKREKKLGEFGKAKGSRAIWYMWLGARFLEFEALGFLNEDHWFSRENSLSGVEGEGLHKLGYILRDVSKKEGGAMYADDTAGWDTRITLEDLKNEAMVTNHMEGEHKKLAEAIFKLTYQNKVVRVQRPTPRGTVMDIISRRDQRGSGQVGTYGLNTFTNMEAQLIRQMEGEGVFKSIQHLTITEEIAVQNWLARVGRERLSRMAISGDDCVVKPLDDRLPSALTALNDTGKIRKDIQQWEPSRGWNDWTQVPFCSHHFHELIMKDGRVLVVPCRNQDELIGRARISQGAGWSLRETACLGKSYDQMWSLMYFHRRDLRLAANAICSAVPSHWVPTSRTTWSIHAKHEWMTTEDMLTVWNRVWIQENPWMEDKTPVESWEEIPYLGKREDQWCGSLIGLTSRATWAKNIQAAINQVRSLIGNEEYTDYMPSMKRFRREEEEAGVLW

CC(=C/c1ccccc1)/C=C1/SC(N2CCOCC2)=NC1=O
IC50 (CHO-K1): 40.7 µM (inactive) | IC50 [1]: 0.51 µM (active) | IC50 [2]: 3.82 µM (active) | IC50 (Orexin receptor type 2 [3]): > 88.8 µM (inactive) | IC50 (Orexin receptor type 2 [4]): 26 µM (inactive) | IC50 [5]: > 49.8 µM (inactive)

c1c[nH]c(CN2CCN(Cc3ncc[nH]3)CC2)n1
AC50 [6]: 63.3 µM (active)

N#Cc1ccc(C(C(=O)Nc2ccc3c(c2)OCCO3)n2c(=O)c(-c3ccco3)nc3ccccc32)cc1 (stereo unspecified)
IC50 [7]: 9.98 µM (active)

CCN1CCN(CCCNC(=O)c2cc3c(O)nc4ccccc4c3s2)CC1
AC50 [6]: 46.5 µM (active)

Cc1cc(C)n2nc(-c3cccc(Br)c3)cc2n1
IC50 (CHO-K1): > 66.2 µM (inactive) | IC50 [1]: 2.05 µM (active) | IC50 [2]: 9.69 µM (active) | IC50 (Orexin receptor type 2 [3]): > 88.8 µM (inactive) | IC50 (Orexin receptor type 2 [4]): > 50 µM (inactive) | IC50 [5]: > 49.7 µM (inactive)

CCCCN(CCCC)CCNC(=O)c1cn(CC)c2ccc(S(=O)(=O)N(C)C3CCCCC3)cc2c1=O
IC50 [8]: 15.8 µM (active)

Cc1c(C(=O)NCCSCc2cccc(C(F)(F)F)c2)cnn1-c1ccc(Cl)cc1
AC50 [9]: 7.25 µM (active)

CC(C)(C)c1ccc(C(=O)CC(Sc2ccc(Cl)cc2)C(=O)O)cc1 (stereo unspecified)
EC50 [10]: 137 µM (active) | EC50 [11]: > 60 µM (not active) | IC50 [12]: > 66 µM (inactive) | IC50 [13]: > 66 µM (inactive) | AC50 [9]: 4.71 µM (active) | CC50 (Vero [14]): 35.9 µM (active) | IC50 (Genome polyprotein): 38.1 µM (active) | AC50 [15]: 4.12 µM (active) | EC50 [16]: 2.02 µM (active) | IC50 [8]: 12.6 µM (active) | CC50 (Vero [17]): 23.2 µM (active)

CCN(Cc1ccccc1)S(=O)(=O)c1cc(C(=O)NC2CCCCCC2)ccc1OC
IC50 [8]: 0.575 µM (active)

Cc1noc(C)c1COC(=O)c1ccc2c(c1)S(=O)(=O)c1ccccc1C2=O
IC50 (CHO-K1): 18.5 µM (inactive) | IC50 [1]: 1.2 µM (active) | IC50 [2]: 4 µM (active) | IC50 (Orexin receptor type 2 [3]): > 88.8 µM (inactive) | IC50 (Orexin receptor type 2 [4]): > 50 µM (inactive) | IC50 [5]: > 49.7 µM (inactive)

Cc1ccc(O)c(C(=O)C=Cc2ccccc2)c1
IC50 [7]: 4 µM (active)
